According to US6403343B2, “Method of producing a taxane-type diterpene and a method of obtaining cultured cells which produce the taxane-type dilterpene at a high rate” (Mitsui Chemicals, Inc., priority 1993, dated 2002):

Key:
Format in all cases: cell-based
[1] = system: cultured cells of Taxus baccata LINN; test: Growth rate and taxane yield, shake culture under controlled oxygen concentration in the gas phase, with or without methyl jasmonate; conditions: max oxygen in gas phase 10%; for yield of baccatin III / yield of cephalomannine / yield of taxol: cell + medium
Method: One gram (fresh weight) of the callus was inoculated to an Erlenmeyer flask containing 20 ml of liquid Woody Plant Medium to which the above-mentioned component had been added to give the same concentration and shake culture was carried out with a rotary shaker (amplification of 25 mm, 100 rpm) and the callus was subcultured in every 21 days to accelerate the growth rate of the callus.
One gram (fresh weight) of the cultured cells thus obtained was inoculated to an Erlenmeyer flask containing 20 ml of liquid Woody Plant Medium to which the above-mentioned component had been added to give the same concentration, and the flask was placed in a chamber (the capacity of 3000 ml) having a gas feed opening and a gas discharge opening, then the chamber was closed hermetically, and air was so mixed with nitrogen that the concentration of the oxygen in a gas to be supplied to the cells to be cultured became 4-15%, and while the gas was supplied through the feed opening at the rate of 25 ml per minute, shake culture was carried out at 25° C. for 21 days.
After completing the culture, cultured cells of Taxus baccata LINN were harvested by filtration and lyophilized, then the dry weight was measured to obtain the growth rate thereof. Taxane-type diterpenes were extracted from the dried cells with methanol and the like, and they were determined by comparing with standard taxol, cephalomannine, and baccatin III using high performance liquid chromatography to measure the yields of the taxane-type diterpenes.

[2] = system: cultured cells of Taxus baccata LINN; test: Two-stage culture: first stage with potassium peroxodisulfate, second stage with methyl jasmonate; cell yield and taxol yield; conditions: for yield of cells, second stage of the culture / yield of taxol, second stage of the culture: second stage with methyl jasmonate 100 μM on the 14th day; for content of taxol, first stage of the culture / yield of cells, first stage of the culture: added 1st day
Method: After completing the culture, the cultured cells were harvested by filtration and a part of the cells were used as seed cells for the second stage of the culture and the rest of the cells were subjected to the measurement of the cell yield and the taxane content in the cells. Accordingly, 1 g (fresh weight) of the cultured cells were inoculated to an Erlenmeyer flask containing 20 ml of liquid Woody Plant Medium to which naphthalenacetic acid had been added to give the concentration of 10^−5M and shake culture was carried out at 25° C. for 14 days. On the 14th day of the culture, methyl jasmonate was added to the medium to give the concentration in the medium of 100 μM and the culture was further continued for another 7 days. On the other hand, the rest of the cells obtained in the first stage of the culture were lyophilized, then the dry weight was measured to obtain the cell yield thereof per liter of the liquid medium. The content of taxol in the dried cells was measured by high performance liquid chromatography. The yield of the cells and the yield of taxol were measured for the cells obtained by second stage of the culture in the same manner as that for the cells obtained in the first stage of the culture.

[3] = system: cultured cells of T. media; test: Taxane yield, T. media cultured cells with jasmonic acids added; conditions: 250 μM added on 14th day, 7 more days
Method: The procedure of Example 6 was carried out except that cultured cells of T. media were used.
The procedure of Example 13 was carried out except that cultured cells of T. media were used.
The procedure of Example 22 was carried out except that cultured cells of T. media were used.

[4] = system: cultured cells of Taxus brevifolia NUTT; test: Taxane yield, Taxus brevifolia cultured cells with jasmonic acids added; conditions: 250 μM added on 14th day, 7 more days
Method: After completing the culture, the procedure of Example 1 was carried out.
After completing the culture, the procedure of Example 8 was carried out.
After completing the culture, the procedure of Example 15 was carried out.

[5] = system: cultured cells of Taxus baccata LINN; test: Taxane-type diterpene yield and cell yield, shake culture of Taxus baccata cells with a jasmonic acid (or jasmone) added
[6] = system: cultured cells of Taxus baccata LINN, layer of 1.07 g/ml or less; test: Same culture using cells of the specific gravity layer of 1.07 g/ml or less (Ficoll), jasmonic acids added; conditions: 250 μM added on 14th day, 7 more days; cells of layer of 1.07 g/ml or less
Method: (§1) The cells with accelerated growth rate obtained by the method of Example 1 were fractionated firstly by a stainless steel mesh and cell clusters having the size of 250-840 μm were obtained. A medium having a specific gravity of 1.07 (g/ml) was produced by the use of Ficoll and the above-mentioned cells were layered over it and centrifuged at 700 rpm for 6 minutes. The cells were fractionated into two layers according to the difference of the specific gravity. The cells contained in the layer of 1.07 g/ml or less were fractionated and washed with 2% sucrose solution three times or more, to wash off Ficoll. After the washing, 1 g (fresh weight) of the cells was transferred to an Erlenmeyer flask containing 20 ml of liquid Woody Plant Medium and shake culture was carried out at 25° C. for 14 days. […] After completing the culture, the procedure of Example 1 was carried out.
as §1, with “growth rates” for “growth rate”, “Example 8” for “Example 1”, “was inoculated” for “was transferred”
as §1, with “Example 15” for “Example 1”, “was inoculated” for “was transferred”

[7] = first stage with potassium peroxodisulfate 5 × 10^−3M
[8] = first stage with potassium peroxodisulfate 5 × 10^−4M
[9] = first stage with potassium peroxodisulfate 10^−3M
[10] = first stage with potassium peroxodisulfate 10^−4M
[11] = first stage with potassium peroxodisulfate 10^−5M
[12] = potassium peroxodisulfate 5 × 10^−3M in the medium
[13] = potassium peroxodisulfate 5 × 10^−4M in the medium
[14] = potassium peroxodisulfate 10^−3M in the medium
[15] = potassium peroxodisulfate 10^−4M in the medium
[16] = potassium peroxodisulfate 10^−5M in the medium
[17] = 0.01 μM added on 14th day, 7 more days
[18] = 0.1 μM added on 14th day, 7 more days
[19] = 1 μM added on 14th day, 7 more days
[20] = 10 μM added on 14th day, 7 more days
[21] = 25 μM added 4 times every two days from 7th day, total 100 μM
[22] = 100 μM added on 7th day, 14 more days
[23] = 100 μM added on 14th day, 7 more days
[24] = 100 μM added on first day, 20 more days
[25] = 250 μM added on 14th day, 7 more days
[26] = 500 μM added on 14th day, 7 more days
[27] = 1000 μM added on 14th day, 7 more days

CCC=CCC1C(=O)CCC1CC(=O)OC (stereo not shown) [Example 66]
growth rate ([1]; methyl jasmonate 10 μM): 2.82 times
total yield of taxane ([1]; methyl jasmonate 10 μM): 14.73 mg/L
yield of baccatin III ([1]; methyl jasmonate 10 μM): 2.26 mg/L
yield of cephalomannine ([1]; methyl jasmonate 10 μM): 1.73 mg/L
yield of taxol ([1]; methyl jasmonate 10 μM): 10.24 mg/L
growth rate ([1]; methyl jasmonate 100 μM): 2.45 times
total yield of taxane ([1]; methyl jasmonate 100 μM): 36.05 mg/L
yield of baccatin III ([1]; methyl jasmonate 100 μM): 11.32 mg/L
yield of cephalomannine ([1]; methyl jasmonate 100 μM): 2.29 mg/L
yield of taxol ([1]; methyl jasmonate 100 μM): 22.44 mg/L
growth rate ([1]; methyl jasmonate 1000 μM): 1.47 times
total yield of taxane ([1]; methyl jasmonate 1000 μM): 8.61 mg/L
yield of baccatin III ([1]; methyl jasmonate 1000 μM): 2.10 mg/L
yield of cephalomannine ([1]; methyl jasmonate 1000 μM): 1.47 mg/L
yield of taxol ([1]; methyl jasmonate 1000 μM): 5.04 mg/L

O=S(=O)([O-])OOS(=O)(=O)[O-].[K+].[K+] [Example 77]
yield of cells, second stage of the culture [2, 7]: 12.1 g/L
yield of taxol, second stage of the culture [2, 7]: 11.7 ppm
yield of cells, second stage of the culture [2, 8]: 14.4 g/L
yield of taxol, second stage of the culture [2, 8]: 16.3 ppm
yield of cells, second stage of the culture [2, 9]: 13.0 g/L
yield of taxol, second stage of the culture [2, 9]: 13.6 ppm
yield of cells, second stage of the culture [2, 10]: 15.0 g/L
yield of taxol, second stage of the culture [2, 10]: 20.4 ppm
yield of cells, second stage of the culture [2, 11]: 15.6 g/L
yield of taxol, second stage of the culture [2, 11]: 14.0 ppm
content of taxol, first stage of the culture [2, 12]: 45 ppm
yield of cells, first stage of the culture [2, 12]: 14.0 g/L
content of taxol, first stage of the culture [2, 13]: 183 ppm
yield of cells, first stage of the culture [2, 13]: 15.5 g/L
content of taxol, first stage of the culture [2, 14]: 84 ppm
yield of cells, first stage of the culture [2, 14]: 15.2 g/L
content of taxol, first stage of the culture [2, 15]: 250 ppm
yield of cells, first stage of the culture [2, 15]: 16.2 g/L
content of taxol, first stage of the culture [2, 16]: 97 ppm
yield of cells, first stage of the culture [2, 16]: 17.1 g/L

CC/C=C\C[C@H]1[C@@H](CC(=O)OC)CC[C@@H]1O [methyl cucurbate]
cell yield [3]: 12.3 g/L
yield of baccatin III [3]: 5.2 mg/L
yield of cephalomannine [3]: 0.2 mg/L
yield of taxol [3]: 3.9 mg/L
cell yield [4]: 11.0 g/L
yield of baccatin III [4]: 1.2 mg/L
yield of cephalomannine [4]: 0.3 mg/L
yield of taxol [4]: 1.3 mg/L
cell yield [5, 17]: 11.3 g/L
yield of baccatin III [5, 17]: 0.3 mg/L
yield of cephalomannine [5, 17]: 2.6 mg/L
yield of taxol [5, 17]: 4.3 mg/L
cell yield [5, 18]: 11.1 g/L
yield of baccatin III [5, 18]: 0.3 mg/L
yield of cephalomannine [5, 18]: 3.1 mg/L
yield of taxol [5, 18]: 5.4 mg/L
cell yield [5, 19]: 10.4 g/L
yield of baccatin III [5, 19]: 0.3 mg/L
yield of cephalomannine [5, 19]: 3.3 mg/L
yield of taxol [5, 19]: 6.7 mg/L
cell yield [5, 20]: 10.4 g/L
yield of baccatin III [5, 20]: 0.5 mg/L
yield of cephalomannine [5, 20]: 4.0 mg/L
yield of taxol [5, 20]: 11.3 mg/L
cell yield [5, 21]: 10.5 g/L
yield of baccatin III [5, 21]: 14.6 mg/L
yield of cephalomannine [5, 21]: 4.1 mg/L
yield of taxol [5, 21]: 18.2 mg/L
cell yield [5, 22]: 9.5 g/L
yield of baccatin III [5, 22]: 8.4 mg/L
yield of cephalomannine [5, 22]: 4.1 mg/L
yield of taxol [5, 22]: 16.8 mg/L
cell yield [5, 23]: 9.8 g/L
yield of baccatin III [5, 23]: 7.2 mg/L
yield of cephalomannine [5, 23]: 4.4 mg/L
yield of taxol [5, 23]: 15.7 mg/L
cell yield [5, 24]: 6.1 g/L
yield of baccatin III [5, 24]: 0.8 mg/L
yield of cephalomannine [5, 24]: 2.8 mg/L
yield of taxol [5, 24]: 3.9 mg/L
cell yield [5, 25]: 9.6 g/L
yield of baccatin III [5, 25]: 10.6 mg/L
yield of cephalomannine [5, 25]: 5.3 mg/L
yield of taxol [5, 25]: 17.7 mg/L
cell yield [5, 26]: 9.3 g/L
yield of baccatin III [5, 26]: 12.0 mg/L
yield of cephalomannine [5, 26]: 3.0 mg/L
yield of taxol [5, 26]: 13.1 mg/L
cell yield [5, 27]: 5.7 g/L
yield of baccatin III [5, 27]: 1.2 mg/L
yield of cephalomannine [5, 27]: 2.8 mg/L
yield of taxol [5, 27]: 4.2 mg/L
cell yield [6]: 9.7 g/L
yield of baccatin III [6]: 22.2 mg/L
yield of cephalomannine [6]: 3.8 mg/L
yield of taxol [6]: 29.7 mg/L
